The values that follow come from patent US7863297B2, “Methods of using 4-(amino)-2-(2,6-dioxo(3-piperidly))-isoindoline-3-dione for the treatment of myelodysplastic syndromes” (Celgene Corporation, priority 2002, dated 2011).

Like-named read-outs stand apart in the source and are kept apart here.

Series [1] has as its system MDS patients. The series can be described thus: Clinical study in MDS patients with RBC transfusion-dependence or symptomatic anemia.
The test system of series [2] is bone marrow progenitor formation. The series can be described thus: MDS vs normal bone marrow progenitor formation in pre-clinical models. It counts as cell-based.
The test system of series [3] is TNF-α production. Conditions: LPS-stimulated human whole blood, cited from earlier work.
Series [4] concerns production of various cytokines. Nature of the series: In vitro studies of effects on production of various cytokines, potency compared with thalidomide. The conditions noted are these: in vitro cytokine production studies. In kind it is cell-based. The source says:
The results of these studies are described below.

The test system of series [5] is TNF-α production. Conditions: LPS-stimulated PBMC, cited from earlier work; for IC50: read-out: IC50 for inhibiting production of TNF-α.
For series [6], the system named is AML cells. Nature of the series: Mitogenic response to VEGF in AML cells. It counts as cell-based. The conditions noted are these: by extinguishing ligand-induced Akt-phosphorylation.
The test system of series [7] is MDS patients. The series can be described thus: Expanded clinical study with additional 16 MDS patients. It counts as in vivo, human. The text has this: The clinical study was expanded with additional 16 MDS patients for at least eight weeks. According to the IPSS, 13 of these patients were categorized as low- or intermediate-1-risk patients and three patients were grouped as intermediate-2- or high-risk patients. According to the FAB classification, there were 11 patients with refractory anemia (RA) or RA with ringed sideroblasts (RARS), and five patients with RA with excess blasts (RAEB), RAEB in transformation (RAEB-T). […] Among these 16 patients who completed at least 8 weeks of monitoring, nine patients achieved an erythroid response as assessed by the International MDS Working Group Criteria. The erythroid responses consisted of transfusion independence in seven previously transfusion-dependent patients, a >2 g/dL rise in blood hemoglobin concentration in one patient in with transfusion-independent anemia, and a >50% decrease in RBC transfusion requirement in one transfusion-dependent patient. […] In addition, complete cytogenetic responses developed in five in eight patients with abnormal karyotypes at baseline. These five patients with complete cytogenetic responses all had the Del5q31-33 abnormality, which has been discovered to be a good prognostic factor for MDS. Indeed, all five patients who enrolled in this study with 5q-syndrome achieved a complete cytogenetic response and a major erythroid response.

For series [8], the system named is MDS patients. The conditions noted are these: MDS patients treated with recombinant human EPO; cited from earlier work.
[9] abbreviates: 25 mg daily, initial ten patients.
Where [10] appears, read: hematologic responses, nine evaluable.

With `Nc1cccc2c1CN(C1CCC(=O)NC1=O)C2=O` (stereo not shown), the tolerability entry in series [1] (10 mg continuous oral daily dose) is reported as “well-tolerated with minimal myelosuppression”. In series [1] (setting [9]), the “grade 3 fatigue necessitating dose reduction” value was 1 patient; the “myelosuppression (higher than grade 3 common toxicity criteria or 50% decrease in leukocyte and platelet counts) necessitating dose reduction” value came out at 9 patients. The “patients with IPSS Low/Int-1 who experienced hematologic benefit” value in series [1] (6/7 patients with IPSS Low/Int-1) turned out to be 86%. Also, the “complete or partial cytogenetic remission (decrease in abnormal metaphases of more than 50%)” value in series [1] (among five patients evaluable for cytogenetic response) is listed as “three”. Also, in series [1] (among responders), the “normalization of blast percentage” value was determined as 1 patient. Further, the “patients who discontinued therapy prematurely (<2 weeks)” value in series [1] (due to cholecystitis, autoimmune hemolytic anemia, or patient refusal, of 15 patients) was “three”. Also, in series [1] (setting [10]), the RBC transfusion-independence was 4 patients, the “decrease in RBC transfusions of more than 50%” value was 1 patient and the “increase in Hgb of more than 1.5 g” value was 1 patient. In series [1] (limited to the 25 mg dose), the “Grade 1,2 drug-related myalgia” value stood at 1 patient and the “Grade 1,2 drug-related pruritus or itchy scalp” value is on record as 6 patients. The “minor platelet response (increase of more than 30,000/μL)” value in series [1] (number of responses) was “one”. In series [1] (of nine evaluable patients, oral 25 mg daily reduced to 10 mg, IWG criteria), the “evaluable patients who experienced hematologic benefit” value is 66%. For the same compound, the overall clinical activity entry in series [1] (patients with low/intermediate-1 risk MDS) is “remarkable erythropoietic and cytogenetic remitting activity”. Besides, in series [2], the “MDS vs normal bone marrow progenitor formation” value is on record as “selectively suppresses MDS vs normal bone marrow progenitor formation”. In series [3], the “IC50 for inhibiting production of TNF-α” value was approximately 0.1036 µg/mL. For the same compound, the concentration for half-maximal inhibition (IC50) in series [3] (read-out: IC50 for inhibiting production of TNF-α) was approximately 0.48 µM. Besides, the “potency relative to thalidomide, in all studies” value in series [4] is given as “at least 50 times”. In series [5], the “IC50 for inhibiting production of TNF-α” value is approximately 0.0259 µg/mL and the IC50 is approximately 0.1 µM. Moreover, in series [6], the “mitogenic response to VEGF” value was “abrogates mitogenic response to VEGF in AML cells”. The “patients with 5q-syndrome who achieved a complete cytogenetic response and a major erythroid response” value in series [7] (all enrolled patients with 5q-syndrome) is “five”. The “need for dose reduction by completion of eight weeks therapy” value in series [7] (all patients with starting dose of 25 mg) is on record as “required dose reduction”. Further, in series [7] (among 16 patients with at least 8 weeks of monitoring, start 25 mg or 10 mg daily), the “patients who achieved an erythroid response (International MDS Working Group Criteria)” value is given as “nine”. Also, in series [7] (association with therapy), the “apoptotic index for myelodysplastic progenitors” value was “increased apoptotic index” and the “normal hematopoietic progenitor cells” value is given as “recovery of normal hematopoietic progenitor cells”. Further, the “transfusion independence in previously transfusion-dependent patients” value in series [7] (erythroid responses) is “seven”. Also, the minor platelet response entry in series [7] (human, in vivo) was “One”. For the same compound, the complete cytogenetic responses entry in series [7] (in eight patients with abnormal karyotypes at baseline) is on record as “five”. Further, in series [7] (of 16 patients), the major erythroid response result is “eight” and the minor erythroid response result is recorded as “one”. Also, the “>50% decrease in RBC transfusion requirement” value in series [7] (transfusion-dependent patient) was “one”. Also, in series [7] (transfusion-independent anemia), the “>2 g/dL rise in blood hemoglobin concentration” value was “one”.

In the case of `O=C1CCC(N2C(=O)c3ccccc3C2=O)C(=O)N1` (racemic) [Thalidomide, 2-(2,6-dioxo-3-piperidinyl)-1H-isoindole-1,3(2H)-dione, reference compound], in series [5], the “IC50 for inhibiting production of TNF-α” value was approximately 50.2 µg/mL and the IC50 was approximately 194 µM.

Turning to “recombinant human EPO: recombinant human erythropoietin (EPO), a hematopoietic growth factor”, in series [8], the “patients with sustained improvement in hemoglobin or decrease in transfusion requirement” value is “less than 25%”.

As a reminder, the IC50 is the concentration that inhibits the measured activity by half.
